Source: PMC4381330, “Identification of a novel selective agonist of PPARγ with no promotion of adipogenesis and less inhibition of osteoblastogenesis” (Scientific Reports, 2015)

Tests used:
LXRα = target: T1, LXRα (Homo sapiens, UniProt Q13133); experiment: Receptor-specific transactivation, GAL4-LBD reporter in HEK293T cells; type: cell-based; conditions: 30 μM F12016
T1 construct: expressed in transfected cells; host or cells: HEK293T
T1 sequence (Q13133 209-447 limits assumed): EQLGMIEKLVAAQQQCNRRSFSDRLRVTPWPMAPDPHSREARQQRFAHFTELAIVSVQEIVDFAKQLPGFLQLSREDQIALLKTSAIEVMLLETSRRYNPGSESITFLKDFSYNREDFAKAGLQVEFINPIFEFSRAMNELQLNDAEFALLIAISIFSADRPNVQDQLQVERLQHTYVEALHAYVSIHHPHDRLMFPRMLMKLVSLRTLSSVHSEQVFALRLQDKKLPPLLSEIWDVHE
Experimental: (§1) HEK293T cells were cotransfected with a GAL4-pGL4-luc reporter and plasmids encoding various nuclear receptor LBDs fused with the GAL4 DNA-binding domain. […] LXR, liver X receptor; RXR, retinoid X receptor.
(§2) The determination of nuclear receptor activation was performed as previously. Briefly, HEK293T cells were transfected with GAL4-pGL4-luc reporter plasmid and pBIND-PPARγ-LBD expression plasmid using Lipofectamine 2000 (Invitrogen) for 6 h before treatment with compounds for 20–24 h. Activity was determined by the Luciferase Assay System (Promega).

PPARα = target: T2, PPARα (Homo sapiens, UniProt Q07869); experiment: as above; type: cell-based; conditions: 30 μM F12016
T2 construct: expressed in transfected cells; host or cells: HEK293T
T2 sequence (Q07869 239-466 limits assumed): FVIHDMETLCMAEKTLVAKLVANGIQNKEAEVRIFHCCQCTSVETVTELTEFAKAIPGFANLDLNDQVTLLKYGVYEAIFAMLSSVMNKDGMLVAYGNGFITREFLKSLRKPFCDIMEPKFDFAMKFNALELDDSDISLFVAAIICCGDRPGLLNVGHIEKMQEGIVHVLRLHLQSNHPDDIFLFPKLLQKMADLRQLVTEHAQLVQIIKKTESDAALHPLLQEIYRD
Experimental: as §1, §2

[1] = target: T3, human PPARγ-LBD (corepressor peptide displacement) (Homo sapiens, UniProt P37231); experiment: LanthaScreen TR-FRET corepressor peptide displacement assay; type: biochemical
T3 construct: incubated with GST-fused human PPARγ-LBD, terbium-labeled anti-GST antibody; purchased Invitrogen
T3 sequence (P37231 238-503 limits assumed): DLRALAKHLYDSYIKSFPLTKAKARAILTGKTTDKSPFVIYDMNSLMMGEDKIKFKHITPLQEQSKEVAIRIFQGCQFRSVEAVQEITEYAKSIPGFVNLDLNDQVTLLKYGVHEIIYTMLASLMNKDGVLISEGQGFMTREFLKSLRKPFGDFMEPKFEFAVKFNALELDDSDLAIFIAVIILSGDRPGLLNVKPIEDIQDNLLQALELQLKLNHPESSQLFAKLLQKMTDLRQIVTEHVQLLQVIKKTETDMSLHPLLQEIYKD
Experimental: PPARγ coregulator peptide interaction assay was performed by the LanthaScreen TR-FRET PPARγ Coactivator Assay Kit (Invitrogen) according to the manufacturer's instructions. Serial concentrations of compounds were incubated with GST-fused human PPARγ-LBD, terbium-labeled anti-GST antibody and fluorescein-labeled peptide for 4 h. The measurement and data calculation were as above.

3T3-L1 adipocytes = experiment: 2-NBDG glucose uptake assay in mature 3T3-L1 adipocytes; type: cell-based, mouse; conditions: 1, 10, 30 μM, 24 h, 0.05 nM insulin, vs DMSO
Experimental: (§3) Glucose uptake activity was determined by measuring the uptake of 2-NBDG (2-(N-(7-nitrobenz-2-oxa-1, 3-diazol-4-yl)amino)-2-deoxyglucose, Invitrogen). […] Glucose uptake was initiated by addition of 1 mM 2-NBDG diluted in PBS. After 1 h, it was terminated by removing the contents of the wells and washing the cells with PBS. The glucose uptake was quantified by measuring the fluorescence intensity of cell lysates (prepared with neutral lysis buffer) at 485 nm excitation and 528 nm emission, and normalized to the corresponding protein content.

L02 normal hepatocytes = experiment: 2-NBDG glucose uptake assay in L02 cells; type: cell-based; conditions: 24 h, absence or presence of insulin
Experimental: as §3

MC3T3-E1 preosteoblasts = experiment: Osteoblastic differentiation of MC3T3-E1 cells (Alizarin red S, Alp activity); type: cell-based; conditions: F12016 1, 10, 30 μM
Experimental: MC3T3-E1 cells were cultured in α-MEM to confluency in 24-well plates and then cultured in differentiation medium (α-MEM supplemented with 200 μM ascorbic acid and 10 mM β-glycerophosphate) for 7, 14, and 21 days, which was replaced every 3 days. The cells were treated with DMSO, rosiglitazone, or F12016 at the start of differentiation. At day 8, 15 and 22, total RNA was isolated, and real-time PCR was performed as described below.
Mature osteoblasts were stained with Alizarin red S and Alp activity were measured at day 22. In brief, cells were fixed with 75% ethanol and stained with 40 mM Alizarin red S solution (pH 4.1–4.3) for 10 min. For Alp assay, the cells were harvested and sonicated on ice with two 30s-pulses. Supernatant of lysate was incubated with isopyknic 1.0 mg/ml pNPP (Sigma–aldrich) solution (1 M diethanolamine buffer, 0.5 mM magnesium chloride) for 30 min at 37°C. The reaction was measured at 405 nm. Relative ALP activity was normalized to the protein concentration.

[2] = target: T4, CDK5-mediated phosphorylation of PPARγ at Ser273 (Homo sapiens, UniProt P37231); experiment: In vitro CDK5 assay of the PPARγ LBD (western blot); type: biochemical; conditions: to a similar extent as rosiglitazone
T4 construct: 0.5 μg purified PPARγ-LBD protein was incubated with 50 ng CDK5/p25 kinase (Millipore); Millipore (CDK5/p25 only)
T4 sequence (P37231 238-503 limits assumed): T3 sequence (P37231 238-503 limits assumed)
Experimental: The in vitro CDK assay was performed as described previously. Briefly, 0.5 μg purified PPARγ-LBD protein was incubated with 50 ng CDK5/p25 kinase (Millipore) in CDK assay buffer (Cell Signaling Technology, Danvers, MA, USA), followed by addition of 50 μM ATP and incubation for 30 min at room temperature. PPARγ-LBD was pre-incubated with test compounds for 30 min before performing the reaction. Phosphorylation of PPARγ Ser273 was analyzed by western blotting with an anti-CDK substrate antibody to detect phosphor-serine in the consensus motif for CDK substrate proteins (K/R-S-P-K/R) (Cell Signaling Technology).

[3] = target: T5, CDK5 (substrate Rb protein) (Homo sapiens, UniProt Q00535); experiment: In vitro CDK5-mediated phosphorylation of Rb protein; type: biochemical
T5 construct: purchased Millipore
T5 sequence (Q00535 whole entry): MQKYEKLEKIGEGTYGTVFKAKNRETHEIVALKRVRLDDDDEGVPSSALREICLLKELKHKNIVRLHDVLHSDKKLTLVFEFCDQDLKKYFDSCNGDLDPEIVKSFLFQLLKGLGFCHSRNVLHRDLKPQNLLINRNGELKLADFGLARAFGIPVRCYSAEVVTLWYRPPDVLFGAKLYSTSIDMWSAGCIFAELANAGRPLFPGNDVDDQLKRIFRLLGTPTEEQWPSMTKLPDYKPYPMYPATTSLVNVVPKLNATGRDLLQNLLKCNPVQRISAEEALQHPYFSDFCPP
T5 sequence (Q15078 99-307 partner limits assumed): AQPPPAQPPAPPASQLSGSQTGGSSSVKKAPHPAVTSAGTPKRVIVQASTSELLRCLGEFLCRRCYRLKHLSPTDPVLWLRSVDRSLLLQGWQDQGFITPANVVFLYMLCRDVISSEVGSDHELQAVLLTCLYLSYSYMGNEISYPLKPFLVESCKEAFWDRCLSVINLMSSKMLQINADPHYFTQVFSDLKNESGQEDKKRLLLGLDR

PPARγ LBD mutants = type: cell-based, human; conditions: compared with wild-type PPARγ LBD
Experimental: All chemicals were purchased from Sigma-Aldrich (St. Louis, MO, USA). All medium and serum were obtained from Gibco (Invitrogen). […] Mutations in pBIND-PPARγ-LBD were created by site-directed mutagenesis using the Fast Mutagenesis System (TransGen Biotech, Beijing, China).
as §2

In the case of “2-[2-(1, 2-dimethyl-1H-indol-3-yl)-2-oxo-acetylamino]-benzamide [Compound F12016]”, the “transactivation of LXRα” value (LXRα) is reported as “no effects”, the “transactivation of PPARα” value (PPARα) is reported as “no effects” and the “EC50/IC50 NCoR” value ([1]; corepressor peptide NCoR) is reported as 4.425 µM. For the same substance, the “Efficacy NCoR” value ([1]; corepressor peptide NCoR, relative to rosiglitazone) was 91%, the “EC50/IC50 SMRT” value ([1]; corepressor peptide SMRT) was 2.861 µM and the “Efficacy SMRT” value ([1]; corepressor peptide SMRT, relative to rosiglitazone) was 58%. For the same substance, the “displacement of corepressors NCoR and SMRT” value ([1]; dose-dependent, similar degree as rosiglitazone) was “able to efficiently displace corepressors”, the “insulin-stimulated glucose uptake (2-NBDG)” value (3T3-L1 adipocytes) was “enhanced the insulin-stimulated glucose uptake” and the “insulin sensitivity and glucose transport (2-NBDG)” value (L02 normal hepatocytes) was “significantly increased insulin sensitivity and promoted glucose transport”. For the same substance, the “alkaline phosphatase (Alp) activity” value (MC3T3-E1 preosteoblasts) was “less reductions in mineralization and Alp activity”, the “mineralization (Alizarin Red S)” value (MC3T3-E1 preosteoblasts) was “less reductions in mineralization” and the “CDK5-mediated phosphorylation of PPARγ” value [2] was “effectively blocked CDK5-mediated phosphorylation of PPARγ”. For the same substance, the “phosphorylation of CDK5 substrate Rb protein” value [3] was “no effect”, the “activation of R288A, L340A and S342A mutants” value (PPARγ LBD mutants) was “reduced the ability of F12016 to activate PPARγ” and the “activation of S289A, H323A, H449A and Y473A mutants” value (PPARγ LBD mutants) was “almost the same activity as the wild-type PPARγ LBD”.
